Test results from paper PMC10135569, “Does Enhanced Structural Maturity of hiPSC-Cardiomyocytes Better for the Detection of Drug-Induced Cardiotoxicity?” (Biomolecules, 2023).

What was measured:
[1] = tested on: hiPSC-CMs (iCell2 Cardiomyocytes) 2D monolayers; assay: Contractility measurements using video imaging (ContractilityTool / MUSCLEMOTION); format: cell-based, human; conditions: for activity at 0.1 µM / activity at 0.3 µM / activity at 1 µM / activity at 3 µM / activity at 10 µM: Homo sapiens, Cardiomyocyte, 0.5 h, 30 min, delta over DMSO 0.1%
Method in brief: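 Monolayers on fibronectin or Matrix Plus coating, tested on days 5–6 in serum-free medium. Four concentrations, one per well, n = 8, with vehicle control.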

[2] = tested on: hiPSC-CMs (iCell2 Cardiomyocytes) 2D monolayers; assay: Membrane potential (action potential) recordings with FluoVolt voltage-sensitive dye on the CellOPTIQ platform; format: cell-based, human; conditions: for activity at 0.1 µM / activity at 0.3 µM / activity at 1 µM / activity at 3 µM / activity at 10 µM: Homo sapiens, Cardiomyocyte, 0.5 h, 30 min, delta over DMSO 0.1%
Method in brief: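 iCell2 hiPSC-CM monolayers (50,000 cells/well on fibronectin or Matrix Plus, days 5–6) were loaded with FluoVolt (1:1000, 20 min, 37 °C) and imaged at 37 °C with 470 nm excitation and 510–560 nm emission sampled at 10 kHz. Spontaneous action potentials were recorded for 10 s at baseline and 30 min after drug, with one of four concentrations per well (n = 8).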

[3] = listed in Supplementary Table S1; no reference given; cited from earlier work
[4] = 0.01–1 uM, two 2D monolayer models
[5] = FM monolayer, read-out: CtAmp (%DD)
[6] = FM monolayer, read-out: CtD50 (%DD)
[7] = MM monolayer, read-out: CtAmp (%DD)
[8] = MM monolayer, read-out: CtD50 (%DD)
[9] = FM monolayer, read-out: APD30 (%DD)
[10] = FM monolayer, read-out: APD90 (%DD)
[11] = FM monolayer, read-out: CL (%DD)
[12] = FM monolayer, read-out: Trise (%DD)
[13] = MM monolayer, read-out: APD30 (%DD)
[14] = MM monolayer, read-out: APD90 (%DD)
[15] = MM monolayer, read-out: CL (%DD)
[16] = MM monolayer, read-out: Trise (%DD)

Structure (SMILES): C[C@@H]1CC(=O)NN=C1c1ccc(NN=C(C#N)C#N)cc1 [Levosimendan]
- effects on contractile activity [1, 4]: no physiologically significant effects
- activity at 0.1 µM [1, 5]: 125 ± 20.8%
- activity at 0.1 µM [1, 6]: 94 ± 3.2%
- activity at 0.3 µM [1, 5]: 94 ± 9.6%
- activity at 0.3 µM [1, 6]: 100 ± 2.4%
- activity at 1 µM [1, 5]: 155 ± 32.5%
- activity at 1 µM [1, 6]: 102 ± 2.7%
- activity at 3 µM [1, 5]: 122 ± 26.6%
- activity at 3 µM [1, 6]: 101 ± 1.8%
- activity at 0.1 µM [1, 7]: 120 ± 12.4%
- activity at 0.1 µM [1, 8]: 104 ± 2%
- activity at 0.3 µM [1, 7]: 95 ± 8.1%
- activity at 0.3 µM [1, 8]: 102 ± 1.3%
- activity at 1 µM [1, 7]: 199 ± 27.2%
- activity at 1 µM [1, 8]: 104 ± 2%
- activity at 3 µM [1, 7]: 167 ± 33.5%
- activity at 3 µM [1, 8]: 103 ± 2.3%
- increasing the amplitude of contraction (positive inotropy) ([1]; both experimental groups): ineffective
- contractile amplitude at higher concentrations (in words) ([1]; higher concentrations, FM and MM, not statistically significant): increased
- change in amplitude of contraction at higher concentrations ([1]; higher concentrations, both groups, failed to reach significance): < 20%
- effects on electrical activity [2, 4]: no physiologically significant effects
- activity at 0.1 µM [2, 9]: 102 ± 2.2%
- activity at 0.1 µM [2, 10]: 96 ± 1.7%
- activity at 0.1 µM [2, 11]: 95 ± 1.4%
- activity at 0.1 µM [2, 12]: 97 ± 22.3%
- activity at 0.3 µM [2, 9]: 101 ± 2.9%
- activity at 0.3 µM [2, 10]: 94 ± 1.1%
- activity at 0.3 µM [2, 11]: 93 ± 1.1%
- activity at 0.3 µM [2, 12]: 80 ± 13.5%
- activity at 1 µM [2, 9]: 94 ± 3%
- activity at 1 µM [2, 10]: 93 ± 0.6%
- activity at 1 µM [2, 11]: 93 ± 1.6%
- activity at 1 µM [2, 12]: 65 ± 9.5%
- activity at 3 µM [2, 9]: 99 ± 3.9%
- activity at 3 µM [2, 10]: 94 ± 1%
- activity at 3 µM [2, 11]: 97 ± 1.2%
- activity at 3 µM [2, 12]: 101 ± 24.9%
- activity at 0.1 µM [2, 13]: 97 ± 1.4%
- activity at 0.1 µM [2, 14]: 96 ± 1.2%
- activity at 0.1 µM [2, 15]: 99 ± 0.8%
- activity at 0.1 µM [2, 16]: 107 ± 17.8%
- activity at 0.3 µM [2, 13]: 100 ± 2.2%
- activity at 0.3 µM [2, 14]: 100 ± 1%
- activity at 0.3 µM [2, 15]: 97 ± 0.7%
- activity at 0.3 µM [2, 16]: 121 ± 16.3%
- activity at 1 µM [2, 13]: 95 ± 1.7%
- activity at 1 µM [2, 14]: 98 ± 0.9%
- activity at 1 µM [2, 15]: 97 ± 0.7%
- activity at 1 µM [2, 16]: 96 ± 7.8%
- activity at 3 µM [2, 13]: 93 ± 1.9%
- activity at 3 µM [2, 14]: 98 ± 0.9%
- activity at 3 µM [2, 15]: 98 ± 0.5%
- activity at 3 µM [2, 16]: 114 ± 10.2%
- Free Cmax [3]: 0.1 µM

Structure (SMILES): Cc1[nH]c(=O)c(C#N)cc1-c1ccncc1 [Milrinone]
- activity at 0.3 µM [1, 5]: 103 ± 10.9%
- activity at 0.3 µM [1, 6]: 101 ± 1.7%
- activity at 1 µM [1, 5]: 116 ± 13.2%
- activity at 1 µM [1, 6]: 104 ± 2.4%
- activity at 3 µM [1, 5]: 100 ± 8.4%
- activity at 3 µM [1, 6]: 103 ± 1.7%
- activity at 10 µM [1, 5]: 81 ± 5.7%
- activity at 10 µM [1, 6]: 101 ± 1.7%
- activity at 0.3 µM [1, 7]: 131 ± 17.5%
- activity at 0.3 µM [1, 8]: 100 ± 1%
- activity at 1 µM [1, 7]: 115 ± 6.3%
- activity at 1 µM [1, 8]: 105 ± 1.8%
- activity at 3 µM [1, 7]: 76 ± 9.1%
- activity at 3 µM [1, 8]: 104 ± 1.5%
- activity at 10 µM [1, 7]: 129 ± 28.5%
- activity at 10 µM [1, 8]: 100 ± 1.4%
- activity at 0.3 µM [2, 9]: 96 ± 1.8%
- activity at 0.3 µM [2, 10]: 96 ± 1.2%
- activity at 0.3 µM [2, 11]: 96 ± 1.6%
- activity at 0.3 µM [2, 12]: 80 ± 13.1%
- activity at 1 µM [2, 9]: 100 ± 1%
- activity at 1 µM [2, 10]: 96 ± 0.7%
- activity at 1 µM [2, 11]: 99 ± 0.8%
- activity at 1 µM [2, 12]: 74 ± 13.3%
- activity at 3 µM [2, 9]: 96 ± 1.9%
- activity at 3 µM [2, 10]: 94 ± 0.4%
- activity at 3 µM [2, 11]: 100 ± 0.7%
- activity at 3 µM [2, 12]: 68 ± 7.3%
- activity at 10 µM [2, 9]: 92 ± 2%
- activity at 10 µM [2, 10]: 95 ± 1.1%
- activity at 10 µM [2, 11]: 103 ± 0.6%
- activity at 10 µM [2, 12]: 106 ± 26.8%
- activity at 0.3 µM [2, 13]: 96 ± 1.6%
- activity at 0.3 µM [2, 14]: 97 ± 1.1%
- activity at 0.3 µM [2, 15]: 97 ± 0.2%
- activity at 0.3 µM [2, 16]: 112 ± 18.8%
- activity at 1 µM [2, 13]: 97 ± 0.7%
- activity at 1 µM [2, 14]: 99 ± 0.5%
- activity at 1 µM [2, 15]: 100 ± 0.6%
- activity at 1 µM [2, 16]: 125 ± 11.4%
- activity at 3 µM [2, 13]: 97 ± 1.4%
- activity at 3 µM [2, 14]: 102 ± 1.4%
- activity at 3 µM [2, 15]: 101 ± 0.5%
- activity at 3 µM [2, 16]: 132 ± 27.3%
- activity at 10 µM [2, 13]: 95 ± 1%
- activity at 10 µM [2, 14]: 100 ± 0.9%
- activity at 10 µM [2, 15]: 103 ± 0.2%
- activity at 10 µM [2, 16]: 102 ± 7%
- Free Cmax [3]: 2.32 µM
